16 molecules from patent US5045302A, “Ligands and cationic complexes thereof with technetium-99m” (priority 1988, dated 1991) can be followed below.

The series is described as follows: Rat biodistribution of Tc-99m complexes.

For the molecule `COC(CCP(CCC(OC)OC)CCP(CCC(OC)OC)CCC(OC)OC)OC` [Compound 19], for the setting “2 min p.i.”, the Blood is reported as 18.8 % Injected dose/organ, the Heart is reported as 0.46 % Injected dose/organ, the “Heart/Blood Counts/Gram Ratio” value is on record as 0.37 and the “Heart/Liver Counts/Gram Ratio” value came to 1.29. For the setting “2 min p.i.”, this molecule returned a Liver of 3.27 % Injected dose/organ. For the same molecule, where the note is “60 min p.i.”, the Blood is reported as 0.88 % Injected dose/organ, the Heart was found to be 0.03 % Injected dose/organ, the “Heart/Blood Counts/Gram Ratio” value was found to be 0.6 and the “Heart/Liver Counts/Gram Ratio” value is 0.76. The Liver (60 min p.i.) amounted to 0.67 % Injected dose/organ.
Turning to `CCOC(CCP(CCC(OCC)OCC)CCP(CCC(OCC)OCC)CCC(OCC)OCC)OCC` [Compound 20], for the setting “2 min p.i.”, the Blood was 7.14 % Injected dose/organ, the Heart is recorded as 1.01 % Injected dose/organ, the “Heart/Blood Counts/Gram Ratio” value worked out at 1.95 and the “Heart/Liver Counts/Gram Ratio” value came out at 0.50. For the same molecule, for the setting “2 min p.i.”, the Liver is 24.50 % Injected dose/organ. Where the note is “60 min p.i.”, the Blood came to 1.52 % Injected dose/organ, the Heart came to 0.81 % Injected dose/organ, the “Heart/Blood Counts/Gram Ratio” value turned out to be 7.9 and the “Heart/Liver Counts/Gram Ratio” value is recorded as 0.69. Moreover, for the setting “60 min p.i.”, the Liver amounted to 14.90 % Injected dose/organ.
`C1OCC(CP(CCP(CC2COCO2)CC2COCO2)CC2COCO2)O1` (stereo not shown) [Compound 21]: where the note is “2 min p.i.”, the Blood is listed as 18.6 % Injected dose/organ, the Heart worked out at 0.37 % Injected dose/organ, the “Heart/Blood Counts/Gram Ratio” value is reported as 0.33 and the “Heart/Liver Counts/Gram Ratio” value came to 0.58. This molecule yielded a Liver (2 min p.i.) of 9.83 % Injected dose/organ. Further, for the setting “60 min p.i.”, the Blood is on record as 1.14 % Injected dose/organ, the Heart worked out at 0.04 % Injected dose/organ, the “Heart/Blood Counts/Gram Ratio” value turned out to be 0.5 and the “Heart/Liver Counts/Gram Ratio” value came out at 0.26. The Liver (60 min p.i.) came out at 1.95 % Injected dose/organ.
Take `CC1(C)OCC(CP(CCP(CC2COC(C)(C)O2)CC2COC(C)(C)O2)CC2COC(C)(C)O2)O1` (stereo not shown) [Compound 22]: under “2 min p.i.”, the Blood amounted to 10.4 % Injected dose/organ, the Heart was 0.99 % Injected dose/organ, the “Heart/Blood Counts/Gram Ratio” value was determined as 1.20 and the “Heart/Liver Counts/Gram Ratio” value came to 0.79. Moreover, the Liver (2 min p.i.) is listed as 15.7 % Injected dose/organ. In addition, for the setting “60 min p.i.”, the Blood came to 1.23 % Injected dose/organ, the Heart was determined as 1.00 % Injected dose/organ, the “Heart/Blood Counts/Gram Ratio” value is listed as 12.3 and the “Heart/Liver Counts/Gram Ratio” value is listed as 3.99. The same molecule came in with a Liver (60 min p.i.) of 3.41 % Injected dose/organ.
`C1COC(CP(CCP(CC2CCCO2)CC2CCCO2)CC2CCCO2)C1` (stereo not shown) [Compound 24]: under “2 min p.i.”, the Blood is 3.92 % Injected dose/organ, the Heart came to 1.82 % Injected dose/organ, the “Heart/Blood Counts/Gram Ratio” value is on record as 6.98 and the “Heart/Liver Counts/Gram Ratio” value is 1.74. Besides, the Liver (2 min p.i.) is recorded as 16.4 % Injected dose/organ. Moreover, for the setting “60 min p.i.”, the Blood is recorded as 0.55 % Injected dose/organ, the Heart is 1.42 % Injected dose/organ, the “Heart/Blood Counts/Gram Ratio” value was 39.7 and the “Heart/Liver Counts/Gram Ratio” value is 2.62. The molecule further displayed a Liver (60 min p.i.) of 8.56 % Injected dose/organ.
Turning to `C1CC(CP(CCP(CC2CCOCC2)CC2CCOCC2)CC2CCOCC2)CCO1` [Compound 25], under “2 min p.i.”, the Blood stood at 18.10 % Injected dose/organ, the Heart stood at 0.40 % Injected dose/organ, the “Heart/Blood Counts/Gram Ratio” value came to 0.34 and the “Heart/Liver Counts/Gram Ratio” value was 0.94. Besides, the Liver (2 min p.i.) was found to be 5.74 % Injected dose/organ. Where the note is “60 min p.i.”, the Blood worked out at 1.51 % Injected dose/organ, the Heart stood at 0.04 % Injected dose/organ, the “Heart/Blood Counts/Gram Ratio” value stood at 0.41 and the “Heart/Liver Counts/Gram Ratio” value is 0.34. This molecule had a Liver (60 min p.i.) of 1.60 % Injected dose/organ.
In the case of `CCOCCP(CCOC)CCP(CCOC)CCOCC` (stereo not shown) [Compound 28], for the setting “2 min p.i.”, the Blood is reported as 9.0 % Injected dose/organ, the Heart stood at 0.82 % Injected dose/organ, the “Heart/Blood Counts/Gram Ratio” value was found to be 1.62 and the “Heart/Liver Counts/Gram Ratio” value came out at 1.28. Besides, the Liver (2 min p.i.) came out at 11.0 % Injected dose/organ. Moreover, for the setting “60 min p.i.”, the Blood came to 0.73 % Injected dose/organ, the Heart was found to be 0.69 % Injected dose/organ, the “Heart/Blood Counts/Gram Ratio” value is 15.5 and the “Heart/Liver Counts/Gram Ratio” value is 3.93. In addition, where the note is “60 min p.i.”, the Liver was determined as 2.94 % Injected dose/organ.
As to `CCCOCCP(CCOC)CCP(CCOC)CCOCCC` (stereo not shown) [Compound 29], where the note is “2 min p.i.”, the Blood stood at 8.75 % Injected dose/organ, the Heart is 1.23 % Injected dose/organ, the “Heart/Blood Counts/Gram Ratio” value was 2.26 and the “Heart/Liver Counts/Gram Ratio” value stood at 0.95. The same molecule registered a Liver (2 min p.i.) of 18.6 % Injected dose/organ. For the same molecule, under “60 min p.i.”, the Blood worked out at 1.64 % Injected dose/organ, the Heart worked out at 1.15 % Injected dose/organ, the “Heart/Blood Counts/Gram Ratio” value is 11.5 and the “Heart/Liver Counts/Gram Ratio” value is listed as 1.40. This molecule showed a Liver (60 min p.i.) of 11.5 % Injected dose/organ.
As to `CCOCCCP(CCOC)CCP(CCCOCC)CCOC` (stereo not shown) [Compound 30], where the note is “2 min p.i.”, the Blood is on record as 9.52 % Injected dose/organ, the Heart is reported as 0.73 % Injected dose/organ, the “Heart/Blood Counts/Gram Ratio” value amounted to 1.14 and the “Heart/Liver Counts/Gram Ratio” value stood at 1.28. The same molecule displayed a Liver (2 min p.i.) of 7.69 % Injected dose/organ. Moreover, where the note is “60 min p.i.”, the Blood is on record as 0.34 % Injected dose/organ, the Heart was found to be 0.70 % Injected dose/organ, the “Heart/Blood Counts/Gram Ratio” value was 27.4 and the “Heart/Liver Counts/Gram Ratio” value is recorded as 4.24. The molecule also had a Liver (60 min p.i.) of 1.89 % Injected dose/organ.
Consider `CCOCCP(CCOC(C)C)CCP(CCOCC)CCOC(C)C` (stereo not shown) [Compound 31], for which, for the setting “2 min p.i.”, the Blood is recorded as 6.88 % Injected dose/organ, the Heart amounted to 1.21 % Injected dose/organ, the “Heart/Blood Counts/Gram Ratio” value worked out at 3.05 and the “Heart/Liver Counts/Gram Ratio” value worked out at 0.84. Moreover, the Liver (2 min p.i.) came to 25.0 % Injected dose/organ. Moreover, for the setting “60 min p.i.”, the Blood is 1.22 % Injected dose/organ, the Heart worked out at 0.99 % Injected dose/organ, the “Heart/Blood Counts/Gram Ratio” value is given as 13.4 and the “Heart/Liver Counts/Gram Ratio” value is reported as 1.21. Where the note is “60 min p.i.”, this molecule displayed a Liver of 12.4 % Injected dose/organ.
Take `CCOCCP(CCOCCF)CCP(CCOCC)CCOCCF` (stereo not shown) [Compound 32]: under “2 min p.i.”, the Blood was 5.85 % Injected dose/organ, the Heart turned out to be 0.85 % Injected dose/organ, the “Heart/Blood Counts/Gram Ratio” value is recorded as 2.31 and the “Heart/Liver Counts/Gram Ratio” value worked out at 1.27. The Liver (2 min p.i.) is listed as 10.8 % Injected dose/organ. Besides, under “60 min p.i.”, the Blood stood at 0.38 % Injected dose/organ, the Heart is 0.81 % Injected dose/organ, the “Heart/Blood Counts/Gram Ratio” value worked out at 33.2 and the “Heart/Liver Counts/Gram Ratio” value is 7.46. Where the note is “60 min p.i.”, the Liver turned out to be 1.78 % Injected dose/organ.
Turning to `CCOCP(CCCP(COCC)COCC)COCC` [Compound 33], where the note is “2 min p.i.”, the Blood was found to be 17.9 % Injected dose/organ, the Heart worked out at 0.50 % Injected dose/organ, the “Heart/Blood Counts/Gram Ratio” value was found to be 0.43 and the “Heart/Liver Counts/Gram Ratio” value turned out to be 0.16. In addition, for the setting “2 min p.i.”, the Liver worked out at 39.4 % Injected dose/organ. Besides, under “60 min p.i.”, the Blood came out at 3.20 % Injected dose/organ, the Heart worked out at 0.29 % Injected dose/organ, the “Heart/Blood Counts/Gram Ratio” value worked out at 1.3 and the “Heart/Liver Counts/Gram Ratio” value is reported as 0.29. The same molecule had a Liver (60 min p.i.) of 11.4 % Injected dose/organ.
For `CCOCCP(CCCP(CCOCC)CCOCC)CCOCC` [Compound 34], where the note is “2 min p.i.”, the Blood is 19.5 % Injected dose/organ, the Heart is listed as 0.41 % Injected dose/organ, the “Heart/Blood Counts/Gram Ratio” value is reported as 0.34 and the “Heart/Liver Counts/Gram Ratio” value turned out to be 0.22. The Liver (2 min p.i.) is 29.7 % Injected dose/organ. Also, where the note is “60 min p.i.”, the Blood came out at 4.56 % Injected dose/organ, the Heart was 0.16 % Injected dose/organ, the “Heart/Blood Counts/Gram Ratio” value came to 0.52 and the “Heart/Liver Counts/Gram Ratio” value stood at 0.21. This molecule also came in with a Liver (60 min p.i.) of 10.9 % Injected dose/organ.
As to `C1COC(CP(CCCP(CC2CCCO2)CC2CCCO2)CC2CCCO2)C1` (stereo not shown) [Compound 35], under “2 min p.i.”, the Blood is given as 10.5 % Injected dose/organ, the Heart was 0.59 % Injected dose/organ, the “Heart/Blood Counts/Gram Ratio” value worked out at 0.88 and the “Heart/Liver Counts/Gram Ratio” value is given as 0.28. The Liver (2 min p.i.) was 28.2 % Injected dose/organ. Also, for the setting “60 min p.i.”, the Blood worked out at 1.44 % Injected dose/organ, the Heart is given as 0.32 % Injected dose/organ, the “Heart/Blood Counts/Gram Ratio” value stood at 3.8 and the “Heart/Liver Counts/Gram Ratio” value is on record as 0.46. Moreover, the Liver (60 min p.i.) came to 10.7 % Injected dose/organ.
Consider `CCOCCP(CCOCC)CC(CP(CCOCC)CCOCC)OC` [Compound 36], for which, for the setting “2 min p.i.”, the Blood is on record as 10.8 % Injected dose/organ, the Heart came to 1.05 % Injected dose/organ, the “Heart/Blood Counts/Gram Ratio” value was found to be 1.45 and the “Heart/Liver Counts/Gram Ratio” value came to 0.73. Where the note is “2 min p.i.”, the Liver turned out to be 18.8 % Injected dose/organ. Moreover, for the setting “60 min p.i.”, the Blood stood at 2.18 % Injected dose/organ, the Heart came to 0.73 % Injected dose/organ, the “Heart/Blood Counts/Gram Ratio” value worked out at 5.69 and the “Heart/Liver Counts/Gram Ratio” value was determined as 1.62. Moreover, the Liver (60 min p.i.) amounted to 6.64 % Injected dose/organ.
For `CCOCCP(CCOCC)c1ccccc1P(CCOCC)CCOCC` [Compound 37], where the note is “2 min p.i.”, the Blood was found to be 12.4 % Injected dose/organ, the Heart is listed as 0.82 % Injected dose/organ, the “Heart/Blood Counts/Gram Ratio” value is listed as 0.99 and the “Heart/Liver Counts/Gram Ratio” value is 0.35. For the same molecule, under “2 min p.i.”, the Liver is listed as 29.7 % Injected dose/organ. Also, where the note is “60 min p.i.”, the Blood was 3.25 % Injected dose/organ, the Heart turned out to be 0.54 % Injected dose/organ, the “Heart/Blood Counts/Gram Ratio” value stood at 2.62 and the “Heart/Liver Counts/Gram Ratio” value was 0.63. In addition, the Liver (60 min p.i.) is on record as 12.0 % Injected dose/organ.
